# Laboratory results as given in patent publication US20250177357A1, “METHODS FOR TREATING HYPERTROPHIC CARDIOMYOPATHY” (priority 2021, published 2025).
# Columns and labels:
# [1] = Phase 1 plasma pharmacokinetics, single-ascending dose cohorts; format: in vivo, human
# Protocol: Single-ascending dose (SAD) cohorts. The SAD portion of the study used a randomized, double-blind, placebo-controlled, sequential, escalating-dose design, in which participants received single-ascending oral doses of the study drug. Seven cohorts were dosed in sequence (FIG. 2).
# Pharmacokinetic analyses. For all study groups, blood samples for PK assessment were obtained pre-dose, up to 12 times daily on day 1, and then at regular intervals throughout the study. Blood samples were collected according to the following schedule: SAD Cohorts: Day 1: pre-dose and 0.25, 0.5, 1, 1.5, 2, 2.5, 3, 4, 6, 8, 12, 16, 24, 36, 48, 72, 96, and 216 h post dose. MAD Cohorts (14-day Dosing): Day 1: pre-dose and 0.25, 0.5, 1, 1.5, 2, 2.5, 3, 4, 6, 8, and 12 h post dose; Days 2, 4, 5, 6, and 9: pre-dose (corresponding to trough samples following dosing on days 1, 3, 4, 5, and 8) and 1.5 h post dose; Days 3, 7, 8, 10, 11, 12, and 13: pre-dose (corresponding to trough samples following dosing on days 2, 6, 7, 9, 10, 11, and 12); Day 14: pre-dose and 0.25, 0.5, 1.5, 2, 2.5, 3, 4, 6, 8, 12, 16, 24, 36, 48, 72, and 168 h post dose. MAD Cohort (17-Day Dosing): Day 1: pre-dose and 0.25, 0.5, 1, 1.5, 2, 2.5, 3, 4, 6, 8, and 12 h post dose; Days 2, 4, 5, 6, and 9: pre-dose (corresponding to trough samples following dosing on days 1, 3, 4, 5, and 8) and 1.5 h post dose; Days 3, 7, 8, 10, 11, 12, 13, 14, 15, and 16: pre-dose (corresponding to trough samples following dosing on days 2, 6, 7, 9, 10, 11, and 12); Day 17: pre-dose and 0.25, 0.5, 1.5, 2, 2.5, 3, 5, 7, 9, 12, 24, 36, 48, 72, and 168 h post dose. CYPD6-PM Cohort: Day 1: pre-dose and 0.25, 0.5, 1, 1.5, 2, 2.5, 3, 4, 6, 8, 12, 16, 24, 36, 48, 72, 96, 216, 312, and 552 h post dose. Food-Effect Cohort: Day 1: pre-dose and 0.25, 0.5, 1, 1.5, 2, 2.5, 3, 4, 6, 8, 12, 16, 24, 36, 48, 72, 96, 144, and 216 h post dose. Standard non-compartmental methods were used to calculate PK parameters using Phoenix® WinNonlin® Version 7.0; actual sample collection times were utilized.
# For the MAD cohort, the parameters were AUC24 and Cmax on day 1, plus AUC to the […] (AUCtau) and Cmax on day 14 or 17. The statistical linear relationship between the ln-transformed PK parameters and the ln-transformed dose was verified by including the quadratic (ln Dose)^2 and cubic (ln Dose)^3 effects. […] The dose-proportionality analysis was performed using SAS® PROC MIXED.
# [2] = test system: patients with symptomatic obstructive HCM (oHCM); assay: Phase 2 trial in oHCM: safety; format: in vivo, human
# Text: Patients up-titrated to Dose 2 if either of the following conditions were met on echocardiography: (1) resting LVOT-G≥30 mmHg and the biplane LVEF≥50%; or (2) resting LVOT-G<30 mmHg, post-Valsalva LVOT-G≥50 mmHg, and the biplane LVEF≥50%. Otherwise, the patient remains on Dose 1. If LVEF is <50% at Week 2, the patient was down-titrated to placebo.
# Patients were escalated to the next higher dose if either of the following conditions were met on echocardiography: (1) resting LVOT-G≥30 mmHg and the biplane LVEF≥50%; or (2) resting LVOT-G<30 mmHg, post-Valsalva LVOT-G≥50 mmHg, and the biplane LVEF≥50%. Otherwise, the patient remained on the same dose. If LVEF was <50% at Week 4, the patient was returned to a prior dose level or to placebo if the patient was on Dose 1.
smiles,measurement,setting,value
"CCc1nc(-c2ccc3c(c2)CC[C@H]3NC(=O)c2cnn(C)c2)no1 [aficamten, (R)—N-(5-(5-ethyl-1,2,4-oxadiazol-3-yl)-2,3-dihydro-1H-inden-1-yl)-1-methyl-1H-pyrazole-4-carboxamide]",Maximum time to maximum observed concentration across all participants,[1]; SAD cohorts,4.0 h
same,"CL/F, mean ± SD","[1]; single oral dose 3 mg, n = 5",4.2 ± 3.1 L/h
same,"CL/F, mean ± SD","[1]; single oral dose 10 mg, n = 4",3.0 ± 0.7 L/h
same,"CL/F, mean ± SD","[1]; single oral dose 25 mg, n = 6",3.6 ± 0.5 L/h
same,"CL/F, mean ± SD","[1]; single oral dose 40 mg, n = 5",3.4 ± 0.6 L/h
same,"CL/F, mean ± SD","[1]; single oral dose 50 mg, n = 9",3.8 ± 1.1 L/h
same,Patients with LVEF <50%,[2]; Cohort 1,No patients
same,Patients with AEs related to study drug (per investigator),"[2]; Cohort 1, 21 randomized",3 (14.3) N (%)
same,Patients with TEAEs leading to drug interruption or termination,"[2]; Cohort 1, 21 randomized",0 N (%)
same,Patients with TESAEs,"[2]; Cohort 1, 21 randomized",2 (9.5) N (%)
same,Patients with at least one TEAE,"[2]; Cohort 1, 21 randomized",17 (81) N (%)
same,Patients with fatal TEAEs,"[2]; Cohort 1, 21 randomized",0 N (%)
same,TEAE of LVEF <50% (Core Lab),"[2]; Cohort 1, 21 randomized",0 N (%)
same,Patients with AEs related to study drug (per investigator),"[2]; Cohort 2, 20 randomized",1 (5.0) N (%)
same,Patients with TEAEs leading to drug interruption or termination,"[2]; Cohort 2, 20 randomized",0 N (%)
same,Patients with TESAEs,"[2]; Cohort 2, 20 randomized",0 N (%)
same,Patients with at least one TEAE,"[2]; Cohort 2, 20 randomized",15 (75) N (%)
same,Patients with fatal TEAEs,"[2]; Cohort 2, 20 randomized",0 N (%)
same,TEAE of LVEF <50% (Core Lab),"[2]; Cohort 2, 20 randomized",2 (10) N (%)
same,Patients with transient LVEF reduction to <50% requiring down titration,"[2]; Cohort 2, on 20 mg, remaining above 40%",one patient
same,Interruptions or discontinuations of treatment,[2]; Cohorts 1 and 2,No interruptions or discontinuations
same,Treatment-related serious adverse events,"[2]; Cohorts 1 and 2, 10 weeks, listed as CK-274",no treatment related serious adverse events
same,Patients with AEs related to study drug (per investigator),"[2]; Total, 54 patients",6 (11.1) N (%)
same,Patients with TEAEs leading to drug interruption or termination,"[2]; Total, 54 patients",0 N (%)
same,Patients with TESAEs,"[2]; Total, 54 patients",2 (3.7) N (%)
same,Patients with at least one TEAE,"[2]; Total, 54 patients",41 (75.9) N (%)
same,Patients with fatal TEAEs,"[2]; Total, 54 patients",0 N (%)
same,TEAE of LVEF <50% (Core Lab),"[2]; Total, 54 patients",2 (3.7) N (%)
same,Time for LVEF to return towards baseline,[2]; both cohorts,within two weeks after the end of treatment
